{"source": "patent US6555698B1", "about": "“Chemiluminescent substrates for neuraminidase, assays for detection of neuraminidase and kits therefor” (Tropix, Inc., priority 1998, dated 2003)", "type_in_all_cases": "biochemical", "key": {"Oxford sialidase [1]": {"system": "Oxford sialidase", "test": "Turner luminometer assay, incubation with Oxford sialidase at pH 5.5, then AMP pH 10 injection (Experiments 1-3)", "method": "Next, 0.2 units of Oxford Enzyme were diluted with 400 microliters of […]. 200 microliters of the enzyme (0.1 units) were then treated with 10 microliters of the dioxetane stock and incubated at 37° C. for 15 minutes. The solution was then placed in a Turner luminometer. Light was detected at a constant 80 RLU at a pH of 5.5. All Turner readings were calibrated to 31.5° C.\n5 microliters of the dioxetane stock prepared in Experiment 1 was added to 0.05 units of Oxford sialidase in 200 microliters of the pH 5.5 buffer. The solution (approximately a 110 micromolar substrate) was incubated at 37° C. for 15 minutes. The solution was then placed in a Turner luminometer, and steady light emission at about 55 RLU was noted (see FIG. 6). Next, 400 microliters of AMP pH 10 buffer was injected to produce an off-scale light spike (i.e., greater than 10,000 RLU).\nExperiment 2 was repeated with a 110 micromolar substrate in the presence of 0.025 units of the enzyme. FIG. 7 illustrates that at a pH of 5.5, the light level obtained (56 RLU) was similar to that obtained in Experiment 2. […] Next, an additional 400 microliters of the AMP pH 10 buffer was added, which produced a light peak at 8860 RLU and similar decay kinetics as in Experiment 2."}, "Oxford sialidase [2]": {"system": "Oxford sialidase", "test": "One step chemiluminescence at pH 7.7 after adding Oxford sialidase (Experiment 6)", "details": "pH 7.7, 0.25 units sialidase", "method": "After incubation, 0.25 units of Oxford sialidase in 50 microliters of 50 micromolar acetate buffer was added. Chemiluminescence was spontaneously produced, rising to a maximum of 1380 RLU at 3.25 minutes (see FIG. 10)."}, "sialidase [3]": {"system": "sialidase", "source_text": "FIG. 12A is a graph showing chemiluminescence (RLU) as a function of sialidase dilution using a methylumbelliferyl-N-acetylneuraminic acid salt fluorescent substrate in a 0.05 M sodium acetate/0.1M NaCl buffer.\nFIG. 12B is a graph showing signal to noise ratio (S/N) as a function of sialidase dilution for a methylumbelliferyl-N-acetylneuraminic acid salt fluorescent substrate in a 0.05 M sodium acetate/0.1M NaCl buffer.\nThe results and conditions are summarized in Table B and depicted graphically in FIGS. 12A and 12B."}, "sialidase [4]": {"system": "sialidase", "remark": "listed apart in the source"}}, "note": "Like-named read-outs stand apart in the source and are kept apart here.", "data": [{"compound": "COC1(c2ccc(Cl)c(O[C@]3(C(=O)[O-])C[C@H](O)[C@@H](NC(C)=O)[C@H]([C@H](O)[C@H](O)CO)O3)c2)OOC12C1CC3CC2CC(Cl)(C3)C1.[Na+]", "note": "(stereo partly drawn) [dioxetane 489-102]", "values": [{"measurement": "light peak after AMP pH 10 buffer", "setting": "Oxford sialidase [1]; 0.025 units enzyme", "result": 8860, "unit": "RLU"}, {"measurement": "light level at pH 5.5", "setting": "Oxford sialidase [1]; 0.025 units enzyme, 110 micromolar substrate", "result": 56, "unit": "RLU"}, {"measurement": "light emission relative to no enzyme noise at pH 5.5", "setting": "Oxford sialidase [1]; 0.05 units sialidase", "result": "about 275 times"}, {"measurement": "light spike after AMP pH 10 buffer", "setting": "Oxford sialidase [1]; 0.05 units sialidase", "result": "greater than 10,000 RLU"}, {"measurement": "steady light emission at pH 5.5", "setting": "Oxford sialidase [1]; 0.05 units sialidase, approximately 110 micromolar substrate, 37° C. 15 minutes", "result": "about 55 RLU"}, {"measurement": "correlation of light emission at pH 5.5 with enzyme concentration", "setting": "Oxford sialidase [1]; 0.05 versus 0.025 units", "result": "did not correlate with enzyme concentration"}, {"measurement": "peak light emission after 0.1 AMP pH 10 injection", "setting": "Oxford sialidase [1]; 0.1 units enzyme", "result": "greater than 10,000 RLU"}, {"measurement": "light detected at pH 5.5", "setting": "Oxford sialidase [1]; 0.1 units enzyme, 10 microliters stock, 37° C. 15 minutes", "result": 80, "unit": "RLU"}, {"measurement": "substrate consumption during the incubation time", "setting": "Oxford sialidase [1]; 0.1 units enzyme, 37° C. 15 minutes", "result": "near complete substrate consumption"}, {"measurement": "time of maximum chemiluminescence", "setting": "Oxford sialidase [2]", "result": 3.25, "unit": "min"}, {"measurement": "maximum chemiluminescence", "setting": "Oxford sialidase [2]; 31.5° C.", "result": 1380, "unit": "RLU"}]}, {"compound": "Methylumbelliferyl-N-acetylneuraminic acid salt", "values": [{"measurement": "RLU", "setting": "sialidase [3]", "result": 75078, "unit": "RLU"}, {"measurement": "S/N", "setting": "sialidase [3]", "result": 2.74}, {"measurement": "RLU", "setting": "sialidase [3]; dilution 1000", "result": 4209078, "unit": "RLU"}, {"measurement": "S/N", "setting": "sialidase [3]; dilution 1000", "result": 153.62}, {"measurement": "RLU", "setting": "sialidase [3]; dilution 5000", "result": 1171002, "unit": "RLU"}, {"measurement": "S/N", "setting": "sialidase [3]; dilution 5000", "result": 42.74}, {"measurement": "RLU", "setting": "sialidase [3]; dilution 25000", "result": 263218, "unit": "RLU"}, {"measurement": "S/N", "setting": "sialidase [3]; dilution 25000", "result": 9.61}, {"measurement": "RLU", "setting": "sialidase [3]; dilution 625000", "result": 32200, "unit": "RLU"}, {"measurement": "S/N", "setting": "sialidase [3]; dilution 625000", "result": 1.18}, {"measurement": "RLU", "setting": "sialidase [3]; dilution 3125000", "result": 27538, "unit": "RLU"}, {"measurement": "S/N", "setting": "sialidase [3]; dilution 3125000", "result": 1.01}, {"measurement": "RLU", "setting": "sialidase [3]; dilution 15625000", "result": 28231, "unit": "RLU"}, {"measurement": "S/N", "setting": "sialidase [3]; dilution 15625000", "result": 0.96}, {"measurement": "sensitivity compared with neuraminidase-Star substrate", "setting": "sialidase [4]", "result": "inferior sensitivity"}, {"measurement": "signal-to-noise ratio", "setting": "sialidase [4]; dilution of 1:40,000", "result": 1.79}]}]}
